The first assay concerns the target HIV-1 integrase (Human immunodeficiency virus type 1 group M subtype B, UniProt P04585). The assay is described as follows: HIV-1 integrase inhibition assay (radiolabeled duplex substrate corresponding to the U5 end of the HIV LTR). The class given is biochemical.
Details: not given
On the procedure: For the purpose of Table 1 to 4, the HIV-1 integrase inhibition assay was carried out following a known procedure (Burke, Jr. T. R. et al., J. Med. Chem. 38, 4171-4178 (1995)). A suitable radiolabeled duplex substrate corresponding to the U5 end of the HIV LTR was used.
For the purposes of Table 1 to 4 the HIV-1 integrase inhibition assay was based on a known procedure (Hazuda, D. J. et al., Nucleic Acids Res. 22 1121-1122 (1994)).
In general, IC50 refers to the concentration needed to halve the response being measured. The compound `Nc1ccc(C(=O)N[C@@H](Cc2ccc(O)c(O)c2)C(=O)O)cc1O` [Example 20, Nα-(4-Amino-3-hydroxybenzoyl)-L-3,4-dihydroxyphenylalanine] showed an IC50 of more than 5 µM.

As to `CC(C)(C)OC(=O)CC[C@H](NC(=O)c1cc2ccccc2n1Cc1ccc(F)cc1)C(=O)NCCc1cccs1` [Example 102, N-[Nα-(N′-(4-Fluorobenzyl)indole-2-carbonyl)-Oδ-tert-butyl-L-glutamyl]-2-(2′-thiophenyl)ethylamine], the IC50 is more than 10 µM.

`O=C(CCc1ccc(O)c(O)c1)N[C@@H](Cc1cn(C(c2ccccc2)(c2ccccc2)c2ccccc2)cn1)C(=O)NCCc1ccc(O)c(O)c1` [Example 27, N-(Nα-Dihydrocaffeoyl-Nτ-trityl-L-histidinyl)dopamine] displayed an IC50 of more than 5 µM.

For the compound `O=C(N[C@@H](Cc1ccc(O)cc1)C(=O)NCc1ccc(O)c(O)c1)c1cc(O)c2cccc(O)c2n1` [Example 68, N-[Nα-(4,8-Dihydroxyquinoline-2-carbonyl)-L-tyrosyl]-3,4-dihydroxybenzylamine], the IC50 was more than 5 µM.

Compound `CC(C)(C)OC(=O)C[C@H](NC(=O)c1cc(O)c2cccc(O)c2n1)C(=O)NCCc1ccc(O)c(O)c1` [Example 62, N-[Nα-(4,8-Dihydroxyquinoline-2-carbonyl)-Oγ-ted-butyl-L-aspartyl]dopamine] had an IC50 of more than 5 µM.

On to `COc1ccc(OC)c(NC(=O)[C@H](CCC(N)=O)NC(=O)c2ccc[nH]2)c1` [Example 91, N-(Nα-(Pyrrole-2-carbonyl)-L-glutaminyl]-2,5dimethoxyaniline], for which the IC50 is more than 10 µM.

The compound `Cc1ccc(C(NC(=O)CC[C@H](NC(=O)c2ccc(O)c([N+](=O)[O-])c2)C(=O)NCc2ccc(O)c(O)c2)(c2ccccc2)c2ccccc2)cc1` [Example 26, N-[Nα-(4-Hydroxy-3-nitrobenzoyl)-Nδ-methyltrityl-L-glutaminyl]-3,4-dihydroxybenzylamine] yielded a 50% inhibitory concentration (IC50) of 0.533 µM.

On to `O=C(N[C@@H](COCc1ccccc1)C(=O)NCCc1ccc(O)c(O)c1)c1ccc(O)c([N+](=O)[O-])c1` [Example 34, N-[Nα-(4-Hydroxy-3-nitrobenzoyl)-O-benzyl-L-seryl]dopamine], for which the IC50 stood at 1.8 µM.

In turn, `COc1ccc(OC)c(NC(=O)[C@H](CCC(=O)NC(c2ccccc2)(c2ccccc2)c2ccccc2)NC(=O)c2ccc[nH]2)c1` [Example 88, N-[Nα-(Pyrrole-2-carbonyl)-Nδ-trityl-L-glutaminyl]-2,5-dimethoxyaniline] yielded an IC50 of more than 10 µM.

The compound `CC(C)(C)OC(=O)NCCC[C@H](NC(=O)c1cc(O)c(O)c(O)c1)C(=O)NCCc1ccc(O)c(O)c1` [Example 54, N-[Nα-(3,4,5-Trihydrozybenzoyl)-Nδ-butoxycarbonyl-L-ornithyl]dopamine] gave an IC50 of 0.374 µM.

`CC(C)(C)OC(=O)CC[C@H](NC(=O)c1cc(F)ccc1O)C(=O)NCCc1cccs1` [Example 107, N-[Nα-(5-Fluoro-2-hydroxybenzoyl)-Oδ-tert-butyl-L-glutamyl]-2-(2′-thiophenyl)ethylamine] showed an IC50 of more than 10 µM.

Regarding `COc1ccc(NC(=O)[C@H](CCC(=O)NC(c2ccccc2)(c2ccccc2)c2ccccc2)NC(=O)c2cc3cc(F)ccc3[nH]2)cc1O` [Example 113, N-[Nα-(5-Fluoroindole-2-carbonyl)-Nδ-trityl-L-glutaminyl]-3-hydroxy-4-methoxyaniline], the IC50 is 6.5 µM.

Compound `CC(C)(C)OC[C@H](NC(=O)Cc1cccs1)C(=O)NCCc1ccc(O)c(O)c1` [Example 87] yielded an IC50 of more than 10 µM.

Take `O=C(O)CC[C@H](NC(=O)c1cc2ccccc2n1Cc1ccc(F)cc1)C(=O)NCCc1cccs1` [Example 104, N-[Nα-(N′-(4-Fluorobenzyl)indole-2-carbonyl)-L-glutamyl]-2-(2′-thiophenyl)ethylamine]: the IC50 was more than 10 µM.

Compound `O=C(N[C@@H](CO)C(=O)NCCc1ccc(O)c(O)c1)c1cc2ccccc2n1Cc1ccc(F)cc1` [Example 96, N-[Nα-(N′-(4-Fluorobenzyl)indole-2-carbonyl)-L-seryl]dopamine] had a half-inhibitory concentration (IC50) of more than 10 µM.

In turn, `O=C(NCCCC[C@H](NC(=O)c1cc2cccc(O)c2cc1O)C(=O)NO)c1cc2cccc(O)c2cc1O` [Example 56, Nα,Nε-di-(3,5-Dihydroxynaphthyl-2-carbonyl)-L-lysine hydroxylamide] registered an IC50 of 5.3 µM.

Compound `O=C(/C=C/c1ccc(O)c(O)c1)N[C@@H](CSC(c1ccccc1)(c1ccccc1)c1ccccc1)C(=O)NCCc1ccc(O)c(O)c1` [Example 12, N-(Nα-Caffeoyl-S-trityl-L-cysteinyl)dopamine] came in with an IC50 of 0.472 µM.

`O=C(/C=C/c1ccc(O)c(O)c1)NCCCC[C@H](NC(=O)/C=C/c1ccc(O)c(O)c1)C(=O)NCCc1ccc(O)c(O)c1` [Example 5, N-(Nα,Nε-Dicaffeoyl-L-lysyl)dopamine] returned an IC50 of 0.51 µM.

Regarding `O=C(N[C@@H](Cc1ccc(O)cc1)C(=O)NCCc1ccc(O)c(O)c1)c1cc(O)c2cccc(O)c2n1` [Example 58, N-[Nα-(4,8-Dihydroxyquinoline-2-carbonyl)-L-tyrosyl]dopamine], the IC50 was found to be 1.2 µM.

On to `Cc1ccc(C(NC(=O)CC[C@H](NC(=O)c2cc(O)c3cccc(O)c3n2)C(=O)NCc2ccc(O)c(O)c2)(c2ccccc2)c2ccccc2)cc1` [Example 69, N-[Nα-(4,8-Dihydroxyquinoline-2-carbonyl)-Nδ-methyltrityl-L-glutaminyl]-3,4-dihydroxybenzylamine], for which the IC50 amounted to 0.346 µM.

Consider `O=C(C=Cc1ccc(O)c(O)c1)NC(Cc1cn(C(c2ccccc2)(c2ccccc2)c2ccccc2)cn1)C(=O)NCc1ccc(O)c(O)c1` [Example 31, N-(Nα-Caffeoyl-Nτ-trityl-L-histidinyl)-3,4-dihydroxybenzylamine], for which the IC50 was 0.364 µM.

`O=C(O)CC[C@H](NC(=O)c1cc(O)c2cccc(O)c2n1)C(=O)NCCc1cccs1` [Example 106, N-[Nα-(4,8-Dihydroxyquinoline-2-carbonyl)-L-glutamyl]-2-(2′-thiophenyl)ethylamine] yielded a half-maximal inhibitory concentration (IC50) of more than 10 µM.

In turn, `COc1ccc(OC)c(NC(=O)[C@H](CCC(=O)NC(c2ccccc2)(c2ccccc2)c2ccccc2)NC(=O)c2ccc(O)c(O)c2)c1` [Example 83, N-[Nα-(3,4-Dihydroxybenzoyl)-Nδ-trityl-L-glutaminyl]-2,5-dimethoxyaniline] displayed a half-maximal inhibitory concentration (IC50) of 2.25 µM.

For `O=C(N[C@@H](Cc1cn(C(c2ccccc2)(c2ccccc2)c2ccccc2)cn1)C(=O)NCCc1ccc(O)c(O)c1)c1cc(O)c(O)c(O)c1` [Example 39, N-[Nα-(3,4,5-Trihydroxybenzoyl)-Nτ-trityl-L-histidinyl]dopamine], it took 0.222 µM to reach half-maximal inhibition (IC50).

The same assay, now with this note: Table 1, compounds of formula II′; read-out: IC50.
With `Cc1ccc(C(c2ccccc2)(c2ccccc2)n2cnc(C[C@H](NC(=O)CCc3ccc(O)c(O)c3)C(=O)NCCc3ccc(O)c(O)c3)c2)cc1` [Example 28, N-(Nα-Dihydrocaffeoyl-Nτ-methyltrityl-L-histidinyl)dopamine], the IC50 was 0.713 µM.

Still in this assay, the particulars now being: Table 2, compounds of formula III′; read-out: IC50.
Take “Nα,Nε-di-(3,5-Dihydroxynaphthyl-2-carbonyl)-L-lysine [Example 65]”: the IC50 is more than 5 µM.

Staying with this assay, now noted: Table 4, compounds of formula I′; read-out: IC50.
For the compound `CC(C)(C)OC[C@H](NC(=O)c1cccn1Cc1ccc(F)cc1)C(=O)NCCc1ccc(O)c(O)c1` [Example 93, N-[Nα-(N′-(4-Fluorobenzyl)pyrrole-2-carbonyl)-O-tert-butyl-L-seryl]dopamine], the IC50 is more than 10 µM.

For the origin of these results see patent US6528655B1, “Aromatic derivatives with HIV integrase inhibitory properties” (Pharmacor, Inc., priority 2000, dated 2003).
